# Reference: patent US20030086923A1, “Method for the prevention and/or treatment of atherosclerosis” (priority 1999, published 2003)
# How the values were obtained:
# THP-1 macrophages = assay: Stimulation of cholesterol efflux from cultured THP-1 macrophages; assay type: cell-based, human; conditions: 24 hours, 10 μg/ml apoA-I acceptor, mean±SEM, DMSO control 9.9 ± 0.5
# From the text: Stimulation of Cholesterol Efflux from Cultured Cells
# Patients with Tangier disease have mutations in the ABC1 gene and have very low HDL levels. Cultured cells from these patients are defective in cholesterol efflux (Francis et al. (1995) J. Clin. Invest. 96:78-87). Therefore, induction of ABC1 mRNA should lead to increased cholesterol efflux and increased HDL levels (Francis et al. (1999) Clinica Chimica Acta 286:219-230). TIIP-1 cells were used to determine whether induction of ABC1 mRNA by Compound 1 would increase cholesterol efflux. Specifically, cultured human THP-1 cells were stimulated to differentiate into macrophages by incubation with 100 nM tetradecanoyl phorbol acetate for three days, as described above. After differentiation, the TUP-1 macrophages were labeled with ^3H-cholesterol by incubation for 24 hours with 10 μCi/ml ^3H-cholesterol in Complete RPMI media containing 0.1% lipid-free bovine serum albumin (BSA) plus 100 nM tetradecanoyl phorbol acetate. After labeling, the cells were incubated for 24 hours in Complete RPMI media with 0.1% lipid-free bovine serum albumin (BSA) to allow for equilibration of cellular cholesterol pools. Cholesterol efflux was then measured over the following 24 hours by incubating the cells in Complete RPMI media containing 10 μg/ml of apoA-I as cholesterol acceptor, and either Compound 1 or DMSO as control.
# human GST-LXRα receptor = target: T1, human GST-LXRα receptor (Homo sapiens, UniProt Q13133); assay: Radioligand competition binding scintillation proximity assay, LXRα
# T1 construct: made in house; host or cells: E. coli (pGEX-KT vector)
# T1 sequence (Q13133 164-447): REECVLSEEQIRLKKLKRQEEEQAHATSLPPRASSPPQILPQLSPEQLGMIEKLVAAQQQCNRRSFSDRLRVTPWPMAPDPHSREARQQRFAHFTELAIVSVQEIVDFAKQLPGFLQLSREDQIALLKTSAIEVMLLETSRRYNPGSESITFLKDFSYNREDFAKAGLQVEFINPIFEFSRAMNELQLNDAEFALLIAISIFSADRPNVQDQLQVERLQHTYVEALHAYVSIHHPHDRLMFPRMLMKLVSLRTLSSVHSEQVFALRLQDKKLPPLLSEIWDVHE
# From the text: Radioligand Competition Binding Scintillation Proximity Assays:
# Preparation of Recombinant Human LXRα and LXRβ:
# Human LXRα and LXRβ were expressed as GST-fusion proteins in E. coli. The ligand binding domain cDNAs for human LXRα (amino acids 164-447) and human LXRβ (amino acids 149-455) were subcloned into the pGEX-KT expression vector (Pharmacia). E. coli containing the respective plasmids were propagated, induced, and harvested by centrifugation. The resuspended pellet was broken in a French press and debris was removed by centrifugation. Recombinant human LXR receptors were purified by affinity chromatography on glutathione sepharose and receptor was eluted with glutathione. Glycerol was added to a final concentration of 50% to stabilize the receptor and aliquots were stored at −80° C.
# After incubation for ˜16 h at 15° C. with shaking, the assay plates were counted in a Packard Topcount.
# human PPARγ = target: T2, human PPARγ (Homo sapiens, UniProt P37231); assay: PPARγ competition binding assay
# T2 sequence (P37231 1-505): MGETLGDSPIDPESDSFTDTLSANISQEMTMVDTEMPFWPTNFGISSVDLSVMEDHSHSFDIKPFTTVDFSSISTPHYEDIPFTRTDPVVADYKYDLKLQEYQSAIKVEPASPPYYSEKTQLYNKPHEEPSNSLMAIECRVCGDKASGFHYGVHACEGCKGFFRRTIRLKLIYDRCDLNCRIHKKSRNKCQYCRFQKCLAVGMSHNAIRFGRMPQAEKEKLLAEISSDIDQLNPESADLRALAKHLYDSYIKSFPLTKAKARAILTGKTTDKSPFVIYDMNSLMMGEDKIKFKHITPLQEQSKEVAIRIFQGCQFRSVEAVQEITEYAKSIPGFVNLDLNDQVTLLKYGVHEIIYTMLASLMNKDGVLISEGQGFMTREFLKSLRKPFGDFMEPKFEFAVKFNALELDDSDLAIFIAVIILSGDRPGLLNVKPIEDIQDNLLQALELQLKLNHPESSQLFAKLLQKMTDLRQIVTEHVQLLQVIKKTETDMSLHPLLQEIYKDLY
# From the text: The term ligand throughout this application should be understood to include an agonist, partial agonist or antagonist of LXR. The ligand may be selective for LXRα or LXRβ, or it may have mixed binding affinity for both LXRα and LXRβ. Particularly, compounds within the scope of this invention include those which have greater selectivity as determined by binding affinity for LXRα and/or LXRβ receptors than they have for each of the PPARα, γ and δ receptors.
# ABC1 mRNA = assay: Induction of ABC1 mRNA levels in THP-1 macrophages; assay type: cell-based; conditions: Homo sapiens, ABC-1, 0.10 μM, 6 hours, vs DMSO control, read-out: Fold Induction of ABC1 mRNA (Mean ± SEM)
# Protocol: Induction of ABC1 mRNA levels
# Cultured human THP-1 cells were used. All cell culture incubations were performed at 37° C. under 95% air/5% carbon dioxide. Cells were grown in Complete RPMI medium plus 10% FCS (Fetal Calf Serum). Complete RPMI medium is defined as RPMI medium (Sigma Cat.# R8005) containing […], 1 mM Na Pyruvate, 2 mM L-Glutamine, and Antibiotic-Antimyotic Solution (Sigma Cat.# A9909: 100U/ml Penicillin, 0.1 mg/ml Streptomycin, 0.251l/ml Amphotericin B). Cells were differentiated into macrophages by incubation in Complete RPMI medium plus 10% FCS (Fetal Calf Serum) plus 100 nM tetradecanoyl phorbol acetate for three days. After differentiation, the THP-1 macrophages were incubated in Complete RPMI medium plus 10% FCS (Fetal Calf Serum) with the test LXR agonist. After 6 hours at 37° C., the cells were harvested and total RNA prepared using the phenol/guanidine isothiocyanate method as supplied and described by Molecular Research Center, Inc. (TRI REAGENTφ Cat. No. TR 118). ABC1 mRNA levels in the total RNA were measured using the TaqMan® mRNA quantitation system, following protocols published by the manufacturer (Perkin-Elmer). The oligonucleotide PCR primers used to detect ABC1 were:
# The oligonucleotide probe used was:
# ABC1 mRNA levels in each sample were normalized to the mRNA levels for the 23 kDa highly basic protein. […]
compound,measurement,setting,value
CC(=O)Oc1ccc2c(c1)[C@@]1(C)CCC[C@](C)(C(=O)OC(=O)[C@@]3(C)CCC[C@]4(C)c5cc(OC(C)=O)ccc5CC[C@@H]34)[C@@H]1CC2 [Compound 1],Cholesterol efflux (% of cell contents),THP-1 macrophages; 0.02 μM,14.6 ± 0.5 % of cell contents
same,Cholesterol efflux (% of cell contents),THP-1 macrophages; 2.5 μM,17.1 ± 0.6 % of cell contents
same,IC50,human GST-LXRα receptor,80 nM
same,Ki,human GST-LXRα receptor; read-out: LXRα calculated Ki,~30 nM
same,IC50,human PPARγ,> 10000 nM
same,fold induction at 0.1 µM,ABC1 mRNA,6.9 ± 0.6
